Patent publication US3988456A, “1,2-Diphenylethanolamine derivatives and their salts and the preparation thereof” (Dainippon Pharmaceutical Co., Ltd., priority 1974, dated 1976)
Structures can show the parent of a compound that is named as a salt.

How the values were obtained:
male mice of ddN strain = assay: Analgesic activity: D'Amour-Smith method (thermal pain); assay type: in vivo; conditions: response time prolonged more than 100 %; for ED50: Mus musculus, sc; for Analgesic ED50 value, D'Amour-Smith method: s.c.
Method: i. D'Amour-Smith method (cf. F. E. D'Amour and D. L. Smith, J. Pharmacol., Vol. 72, page 74, 1941)
Thermal pain was induced by radiating heat light on the tail blacked with a black ink of male mice of ddN strain, weighing 9 to 12 g, using the modified apparatus of D'Amour-Smith. The analgesic ED50 -value was calculated from the number of positive animals showing the response time prolonged more than 100 % compared with each before value.

female mice = assay: Analgesic activity: Phenylquinone method (chemical pain); assay type: in vivo, mice (ddN strain); conditions: drugs given 30 minutes before i.p. phenylquinone; for ED50: Mus musculus, po
Method: ii. Phenylquinone method (cf. E. Siegmund, R. Cadmus and G. Lu, Proc. Soc. Exptl. Biol. Med., Vol. 95, page 729, 1957)
Chemical pain was induced by an intraperitoneal injection of 0.1 ml/10 g body weight of 0.03 % phenylquinone in 5 % aqueous ethanol in female mice, weighing 18 to 22 g of ddN strain. Drugs were given 30 minutes before challenge of phenylquinone.

Male guinea-pigs = assay: Anti-tussive activity (coughs by mechanical stimulation); assay type: in vivo; conditions: intraperitoneal; for anti-tussive activity: dose of 5-40 mg/kg; for anti-tussive activity compared with codeine phosphate: vs codeine phosphate
Method: 2. Anti-tussive activity (cf. K. Takagi, H. Fukuda and K. Yano, Yakugakuzasshi, Vol. 80, page 1497, 1960)
Male guinea-pigs, weighing 350 to 450 g, were used. Coughs were caused by successive mechanical stimulations with whiskers, and anti-tussive effects were evaluated by all or none of the cough. The Test Compounds F and G were intraperitoneally injected.

Row | Structure (SMILES) | ED50 (male mice of ddN strain) [mg/kg] | ED50 (female mice) [mg/kg] | further results
1 | Cl.Cl.O=C(c1ccccc1)C(c1ccccc1)N1CCN(Cc2ccccc2)CC1 (racemic) [compound 2, dl-2-Phenyl-2-(4-benzylpiperazin-1-yl)acetophenone dihydrochloride, reference compound] | > 320 | – | –
2 | COc1ccc(CN2CCN([C@H](c3ccccc3)[C@@H](O)c3ccc(Cl)cc3)CC2)cc1 (relative stereo) [Test Compound A, dl-Erythro-1-(p-chlorophenyl)-2-phenyl-2-[4-(p-methoxybenzyl)piperazin-1-yl]ethanol dihydrochloride] | – | 49.9 | –
3 | COc1ccc(CN2CCN([C@H](c3ccccc3Cl)[C@@H](O)c3ccccc3)CC2)cc1 (relative stereo) [Test Compound B, dl-Erythro-1-phenyl-2-(o-chlorophenyl)-2-[4-(p-methoxybenzyl)piperazin-1-yl]ethanol dihydrochloride] | 55.5 | 45.1 | –
4 | COc1ccc(CN2CCN([C@H](c3ccccc3OC)[C@@H](O)c3ccccc3)CC2)cc1 (relative stereo) [Test Compound C, dl-Erythro-1-phenyl-2-(o-methoxyphenyl)-2-[4-(p-methoxybenzyl)piperazin-1-yl]ethanol dihydrochloride] | 32.5 | 28.6 | –
5 | COc1ccc(CN2CCN([C@H](c3ccc(C)cc3)[C@@H](O)c3ccc(C)cc3)CC2)cc1 (relative stereo) [Test Compound D, dl-Erythro-1-(p-tolyl)-2-(p-tolyl)-2-[4-(p-methoxybenzyl)piperazin-1-yl]ethanol dihydrochloride] | 98.6 | 55.6 | –
6 | COc1ccc(CN2CCN([C@H](c3ccccc3C)[C@@H](O)c3ccccc3)CC2)cc1 (relative stereo) [Test Compound E, dl-Erythro-1-phenyl-2-(o-tolyl)-2-[4-(p-methoxybenzyl)-piperazin-1-yl]ethanol dihydrochloride] | 65.2 | 30.2 | –
7 | COc1ccc(CN2CCN([C@H](c3ccccc3)[C@@H](O)c3cccc(C)c3)CC2)cc1 (relative stereo) [Test Compound G, dl-erythro-1-(m-tolyl)-2-phenyl-2-[4-(p-methoxybenzyl)piperazine-1-yl]ethanol dihydrochloride] | – | – | anti-tussive activity (Male guinea-pigs): excellent anti-tussive activity in a dose of 5-40 mg/kg; anti-tussive activity compared with codeine phosphate (Male guinea-pigs): comparable with that of codeine phosphate
8 | CN1CCN([C@H](c2ccccc2)[C@@H](O)c2ccccc2)CC1 (relative stereo) [compound 1, dl-Erythro-1,2-diphenyl-2-(4-methylpiperazin-1-yl)ethanol dihydrochloride, reference compound] | – | – | Analgesic ED50 value, D'Amour-Smith method (male mice of ddN strain): inactive
9 | COc1ccc(CN2CCN(C(c3ccccc3)C(O)c3ccccc3)CC2)cc1.Cl.Cl (stereo not drawn) [Test Compound F, d-Erythro-1,2-diphenyl-2-[4-(p-methoxybenzyl)piperazin-1-yl]ethanol dihydrochloride] | – | – | Analgesic ED50 value, D'Amour-Smith method (male mice of ddN strain): 37.2 mg/kg; Analgesic ED50 value, Phenylquinone method (female mice; p.o.): 63.2 mg/kg; anti-tussive activity (Male guinea-pigs): excellent anti-tussive activity in a dose of 5-40 mg/kg; anti-tussive activity compared with codeine phosphate (Male guinea-pigs): more potent than that of codeine phosphate
10 | Cc1c(N(C)C)c(=O)n(-c2ccccc2)n1C [compound 3, Aminopyrine, reference compound] | 233 | 53.3 | –
